From patent US5527811A, “Isoquinolinyl compounds which are useful in treating cerebral vascular disorders” (Takeda Chemical Industries, Ltd., priority 1993, dated 1996)
pIC50: −log10 of the molar value. Like-named read-outs stand apart in the source and are kept apart here. Each block holds one molecule with its values, some of them ahead of it.

Assays:
[1] = test system: brain edema in male wistar rats; assay: Anti-brain edema effect (middle cerebral arterial occlusion and reperfusion model); assay type: in vivo, rat (wistar); details: 10 mg/kg(ip) × 7, rat, 3rd day after reperfusion, * p < 0.05
From the text: Test Example 2 Anti-brain edema effect (middle cerebral arterial occlusion and reperfusion model)
Male wistar rats (Jcl:9wks) were anesthetized with inhalation of halothane (2-bromo-2-chloro-1,1,1-trifluoroethane). After the incision of neck, bilateral common carotid arteries were […] an embolized needle (diameter 0.3 mm, length 26 mm nylon thread) was inserted into the left internal carotid artery through external carotid artery and, simultaneously, the bilateral common carotid arteries were occluded by the Sugita's aneurysm clips. The embolized needle and the clips were removed out 30 minutes after occlusion. Test sample was administered immediately and 5 hr after reperfusion on the operated day, twice a day on the 1st and 2nd day, and 1 hr before removing the brain on the 3rd day (total 7 times), intraperiatonelly. In the control group, vehicle (distilled water, saline or 5% gum arabic) was administered in the same fasion. Brain edema on the 3rd day after reperfusion was estimated from the content of water, potassium and sodium in cerebral cortex and striatum. Water content was calculated from the ratio of dried brain weight and wet brain weight [(1-dried weight/wet weight)×100%]. The contents of pottasium and sodium were measured using the solution extracted from dried brain tissue with 14% nitric acid by the method of the framephotometer (Table 3).

[2] = test system: transient cerebral ischemia in mongolian gerbils; assay: Protective effect of cerebralischemia: survival ratio after bilateral common carotid occlusion and reperfusion in gerbils; assay type: in vivo, mongolian gerbil; details: Meriones unguiculatus; 5 mg/kg, ip; 30 min before occlusion and 90 min after reperfusion; estimated 8 hr after reperfusion; control 0; read-out: Survival ratio
Method: Test Example 1 Protective effect of cerebralischemia
Male mongolian gerbils (Seiwa/8-10 wks) (n=8-10) were used. Bilateral common carotid arteries were occluded after the incision of the center of the neck under ether anesthesia. Global cerebral ischemia was induced by the occlusion of bilateral common carotid arteries (15 minutes), and after that these arteries were reperfused. Test sample was administered intraperiatonelly 30 minutes before occlusion and 90 minutes after reperfusion. In the control group, vehicle (distilled water, saline or 5% gum arabic) was administered in the same fashion. Survival ratio was estimated at 8 hr after reperfusion (Table 2).

[3] = test system: cytosolic free Ca^2+ in hippocampal neurons; assay: Effect on cytosolic free Ca^2+ concentration in neurons (L-glutamic acid-induced [Ca^2+]i increase, fura-2); assay type: cell-based; details: Rattus norvegicus, Hippocampal neuron, L-Glu.-induced [Ca^2+]i increase
Method: Effect on cytosolic free Ca^2+ concentration in neurons
Neurons were harvested from hippocampi of 18-day-old rat embryos and cultured based on the method of Hatanaka and Tsukui (Developmental Brain Research, 30, 47-56, 1986). Hippocampal neurons suspended in Dulbecco's modified Eagle's medium were seeded on cover glass slides (10×20 mm, Matunami No. 1, Osaka, Japan) coated with poly-L-lysin at a density of 2.5×10^5 cells/slide and cultured for 7 days in humidified CO2 incubator (95% air/5% CO2) at 37° C. The neurons were washed 3 times with HEPES [N-(2-hydroxyethyl)piperazine-N'-2-ethanesulfonic acid]-buffered physiological salt solution (PSS) (140 mM NaCl, 5 mM KCl, 1 mMMgSO4, 1 mM Na2 HPO4, 1 mM CaCl2, 25 mM glucose, 25 mM HEPES, pH7.4), and then loaded with fura-2 acetoxymethyl ester (4 μM) in HEPES-buffered PSS for 60 min at 37° C. The cover glass slide coated with neurons, which were loaded with fura-2, was inserted into a cuvette that contained 2.5 ml HEPES-buffered PSS supplemented with 0.05% bovine serum albumin. Ca2+ -fura-2 fluorescence was measured with Hitachi F-2000 spectrofluorimeter by 340 nm and 380 nm for excitation and 505 nm for emission. Cytosolic free Ca^2+ concentration ([Ca^2+ ]i) values were calculated according to the method of Grynkiewicz et. al, (Journal of Biological Chemistry, 260, 3440-3450, 1985). Neurons were treated with example-compounds 5 min before the addition of L-glutamic acid (L-Glu.).
L-Glu. leads to two phases-increase of [Ca^2+ ]i in neurons. The first increase of [Ca^2+ ]i is caused by the release from cellular Ca^2+ stores and the influx of extracellular Ca^2+. The second one is caused by the influx of extracellular Ca^2+. The effect of the drug on these two phases-increase of [Ca^2+ ]i was examined and the 50% inhibitory dose (IC50) was calculated.

[4] = target: T1, substance P receptor from human lymphoblast cells (IM-9) (Homo sapiens, UniProt P25103); assay: Radioligand receptor binding inhibitory assay using receptor from human lymphoblast cells (IM-9), 125I-BHSP; details: 25° C., 30 minutes, pH 7.4
T1 construct: The receptor was prepared from human lymphoblast cells (IM-9); endogenous in cells; host or cells: IM-9 human lymphoblast cells (washed membrane preparation)
T1 sequence (P25103 whole entry): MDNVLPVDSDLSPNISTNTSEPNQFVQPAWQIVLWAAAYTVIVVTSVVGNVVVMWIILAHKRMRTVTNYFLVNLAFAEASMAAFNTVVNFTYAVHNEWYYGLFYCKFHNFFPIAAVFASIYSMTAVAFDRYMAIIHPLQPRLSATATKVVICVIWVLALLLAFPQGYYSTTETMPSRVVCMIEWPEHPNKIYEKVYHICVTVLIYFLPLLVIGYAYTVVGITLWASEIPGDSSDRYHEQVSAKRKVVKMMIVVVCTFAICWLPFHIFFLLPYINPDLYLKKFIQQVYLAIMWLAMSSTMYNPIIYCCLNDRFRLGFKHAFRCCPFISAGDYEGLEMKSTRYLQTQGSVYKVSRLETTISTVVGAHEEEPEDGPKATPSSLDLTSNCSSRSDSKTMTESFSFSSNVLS
Method: Radioligand receptor binding inhibitory assay using receptor from human lymphoblast cells (IM-9)
The method of "A. Margaret et al. Molecular Pharmacology 42, 458 (1992)" was modified and used. The receptor was prepared from human lymphoblast cells (IM-9). IM-9 cells were grown in 175 cm^2 tissue culture flasks (100 ml z 10) at a density approximately 2×10^5 /ml of RPMI 1640 with L-glutamine, 10% (V/V) heat inactivated fetal calf serum, penicillin (100 u/ml), and streptomycin (100 μg/ml) at 37° C. in 5%CO2 /95% air for 3 days. IM-9 cells were obtained by centrifugation at 500 Xg for 5 minutes at 5° C. The pellet obtained was washed once with phosphate buffer (Flow Laboratories, CAT No. 28-103-05), homogenized using Polytron homogenizer (Kinematika, Germany) in 30 ml of 50 mM Tris-HCl buffer containing 120 mM NaCl, 5 mM KCl, 2 μg/ml phenylmethyl sufonyl fluoride, and 1 mM ethylenediamine tetra-acetic acid and then centrifuged at 40,000 Xg for 20 minutes. The residue was washed twice with 30 ml of buffer described above, and preserved frozen (-80° C.).
The above specimen was suspended in a reaction buffer (50 mM Tris-HCl buffer (pH 7.4), 0.02% bovine serum albumin, 1 mM phenylmethylsufonyl fluoride, 2 μg/ml chymostatin, 40 μg/ml bacitracin, 3 mM manganese chloride) at a protein concentration of 1.5 mg/ml and a 100 μl portion of the suspension was used in the reaction. After addition of the sample and 125I-BHSP (0.46 KBq), the reaction was conducted in 0.2 ml of reaction buffer at 25° C. for 30 minutes. The amount of nonspecific binding was determined by adding substance P at a final concentration of […]. After the reaction, using a cell harvester (290PHD, Cambridge Technology, Inc., England), rapid filtration was carried out through a glass filter (GF/B, Whatman, U.S.A.) to stop the reaction. After washing three times with 250 μl of 50 mM Tris-HCl buffer (pH 7.4) containing 0.02% bovine serum albumin, the radioactivity remaining on the filter was measured with a gamma counter. Before use, the filter was immersed in 0.1% polyethyleneimine for 24 hours and air-dried. […]

Compound: CC(C)Oc1cccc(NC(=O)NCc2c(-c3ccccc3)c3cc(Cl)ccc3c(=O)n2C)c1 [Example 1, N-[(6-Chloro-1,2-dihydro-2-methyl-1-oxo-4-phenylisoquinolin-3-yl)methyl]-N'-(3isopropoxyphenyl)urea]
- H2O (water content of brain) ([1]; control 81.27 (Example 1), 80.94 (Example 15(HCl))): 80.12 ± 0.32%
- Na (sodium content of brain) ([1]; control 405 (Example 1), 371 (Example 15(HCl))): 322 ± 24 mEq/kg
- K (potassium content of brain) ([1]; control 430 (Example 1), 440 (Example 15(HCl))): 471 ± 13 mEq/kg
- responders at 5 mg/kg [2]: 88%
- pIC50 ([3]; with EGTA, 1st phase (release from cellular Ca^2+ stores), read-out: IC50 with EGTA, 1st Phase): 7.16
- pIC50 ([3]; without EGTA, 1st phase, read-out: IC50 without EGTA, 1st Phase): 5.52
- pIC50 ([3]; without EGTA, 2nd phase, read-out: IC50 without EGTA, 2nd Phase): < 5.00

- pIC50 [4]: 7.33
Compound: Cc1cc2c(-c3ccccc3)c(CN(C)C(=O)c3cc(C(F)(F)F)cc(C(F)(F)F)c3)n(C)c(=O)c2cc1C [Example 36, 3,5-Bis(trifluoromethyl)-N-[(1,2-dihydro-2,6,7-trimethyl-1-oxo-4-phenylisoquinolin-3-yl)methyl]-N-methylbenzamide]

- pIC50 [4]: 9.00
Compound: CN(Cc1c(-c2ccccc2)c2ccccc2c(=O)n1C)C(=O)c1cc(C(F)(F)F)cc(C(F)(F)F)c1 [Example 37, 3,5-Bis(trifluoromethyl)-N-[(1,2-dihydro-2-methyl-1-oxo-4-phenylisoquinolin-3-yl)methyl]-N-methyl benzamide]

- pIC50 [4]: 7.14
Compound: CN(Cc1c(-c2ccccc2)c2cc(Cl)ccc2c(=O)n1C)C(=O)c1cc(C(F)(F)F)cc(C(F)(F)F)c1 [Example 38, 3,5-Bis(trifluoromethyl)-N-[(6-chloro-1,2-dihydro-2-methyl-1-oxo-4-phenylisoquinolin-3-yl)methyl]-N-methylbenzamide]
